Reference: patent US8987201B2, “Black bear parathyroid hormone and methods of using black bear parathyroid hormone” (Michigan Technological University, priority 2009, dated 2015)
Marks after values point to notes of the source that are not given here.

Tests used:
[1] = system: rats; details: cited from earlier work
[2] = system: men and women with age-related osteoporosis; details: 20-30% of cortical and cancellous bone lost; cited from earlier work
[3] = system: Male Swiss-Webster mice; assay: Trabecular bone structure and mineralization in the proximal tibia (micro-computed tomography); assay type: in vivo, mouse; details: PTH 1-84 study: 12 wk old mice, 8 weeks, proximal tibia, normalized by body mass
Description: (§1) All handling procedures and experiments were approved by the Michigan Technological University Institutional Animal Care and Use Committees. Male Swiss-Webster mice were obtained from a commercial breeder (Harlan, Indianapolis, Ind.). All animals were maintained on a 12-h light/12-h dark cycle, and were permitted free access to water and food containing 0.95% calcium (Purina Rodent Diet #5001).
(§2) In the first experiment, 11 wk old mice received daily (5 days/week) subcutaneous injections of 2.5 nmol/kg PTH 1-34 (hPTH 1-34 or bbPTH 1-34) or acidic saline vehicle (0.15 M NaCl+0.001 N HCl) for 8 weeks (n=10 mice/group). In the second experiment, 12 wk old mice received daily (5 days/week) subcutaneous injections of 2.5 nmol/kg PTH 1-84 (hPTH 1-84 or bbPTH 1-84) or acidic saline vehicle for 8 weeks (n=10 mice/group). All PTH- and vehicle-treated animals received subcutaneous injections of calcein at a dosage of 10 mg/kg on days 12 and 3 before death to label mineralizing bone surfaces. Twenty-four hours following the last treatment injection, mice were sacrificed by carbon dioxide asphyxiation. Right femurs were fixed in 10% neutral buffered formalin. Left femurs were wrapped in 0.15M saline soaked gauze and stored at −20 deg C. Left tibias were stored in 70% ethanol at 4 deg C.
Trabecular bone architecture and mineralization were evaluated in the left proximal tibial metaphysis (0.7 mm distal to the growth plate) using micro-computed tomography. Tibias from experiment 1 were scanned on a μCT35 scanner (Scanco Medical AG, Basserdorf, Switzerland) at 3.5 μm (high) resolution. Tibias from experiment 2 were scanned on a μCT40 scanner (Scanco Medical AG, Basserdorf, Switzerland) at 7 μm (high) resolution. Bones were scanned in 70% ethanol. Trabecular bone volume fraction (BV/TV, %), trabecular number (Tb.N, mm^−1), trabecular thickness (Tb.Th, m), trabecular separation (Tb.Sp, m), trabecular apparent mineral density (App.Mn.Dn, mgHA/cm^3) and trabecular tissue mineral density (Mat.Mn.Dn, mgHA/cm^3) were computed using the manufacturer's software.
(§3) All bone geometrical, architectural, and mineral properties were normalized by body mass to account for potential variation in animal size (31-33). Trabecular bone properties quantified by micro-computed tomography were compared by ANOVA between vehicle, bear, and human PTH-treated mice within each study (PTH 1-34 or PTH 1-84). The microCT parameters were not directly compared between the PTH 1-34 and PTH 1-84 studies because analyses were conducted on different microCT machines. For all other bone properties, all six experimental groups (from both the PTH 1-34 and PTH 1-84 studies) were compared with ANOVA and Fisher's PLSD. A significance of p<0.05 was used for all comparisons.

[4] = system: human fetal osteoblasts (hFOB); assay: Serum starvation cell death in human fetal osteoblasts (trypan blue); assay type: cell-based; details: 100 nM for 1 hour before serum starvation for 24 hours, preliminary studies, p<0.0001
Method: All PTH peptides used in the current study attenuated apoptotic signaling induced by serum starvation in vitro (FIG. 19). bbPTH 1-34 reduced apoptotic signaling in pre-osteoblastic cells more than human PTH (FIG. 19). Recently, we found similar results with preliminary studies in human fetal osteoblasts (hFOB). Serum starvation for 24 hours increased cell death in hFOB (confirmed via trypan blue staining), but pretreatment of hFOB cells with 100 nM PTH 1-34 or 1-84 for 1 hour before starvation reduced percent cell death (percentage change in cell death compared to vehicle pretreatment, hPTH 1-34: −18%, bbPTH 1-34: −25%, hPTH 1-84: −17%, bbPTH 1-84: −21%; p<0.0001; data not shown). […] However, although bbPTH 1-84 was less anti-apoptotic than bbPTH 1-34 and hPTH 1-34 in vitro (FIG. 19) it caused the greatest increases in cortical and trabecular bone mass in the in vivo studies (Table 1, Table 2).

[5] = system: MC3T3 subclone 4 cells; assay: PTH attenuation of serum-starvation induced caspase-3/7 activity; assay type: cell-based, mouse; details: all concentrations pooled; bbPTH 1-34 vs hPTH 1-34 p=0.006, vs either PTH 1-84 p≦0.018; bbPTH 1-84 vs hPTH 1-84 p=0.090
Method: MC3T3 subclone 4 cells (ATCC, CRL-2593) were maintained in standard culture media (89% alpha-minimum essential media, 1% penicillin/streptomycin, and 10% FBS) at 37° C. in 5% CO2. Cells were not used beyond passage 30.
MC3T3 cells were seeded at a density of 20,000 cells/well in 96-well plates and allowed to attach overnight. Culture media was then aspirated and replaced with 100 μl of culture media containing 10% FBS and either vehicle (PBS) or PTH (10-100 nM) for one hour, after which media was aspirated and cells were washed with PBS to remove residual serum. To induce apoptosis, cells were incubated in control or serum-free media for 6 hours. Replacement media contained 89% alpha-minimum essential media, 1% penicillin/streptomycin, and either 10% FBS (control media) or 0% FBS (starvation media). After starvation, media was aspirated, cells were washed with PBS, and 50 μl of fresh PBS was added to each well. Caspase-3/7 activity was determined by cleavage of a DEVD substrate (Caspase-Glo 3/7 Assay, #G8093, Promega Corporation). Measured luminescence values were fit to a standard curve prepared with known concentrations of recombinant human caspase-3 (#SE-169, BIOMOL Research Laboratories Inc.). Five wells of each treatment were run per 96-well plate, and procedures were repeated on a minimum of 10 plates. […]

[6] = system: Male Swiss-Webster mice; assay: Cortical bone dynamic histomorphometry in the femur (calcein labels); assay type: in vivo, mouse; details: femoral midshaft, 2.5 nmol/kg s.c., 8 weeks, SD in parentheses
Description: as §1, §2
(§4) Following the bending test, the left femoral diaphyses were ashed in a furnace to determine mineral content (ash fraction). Right femoral diaphyses were embedded in methyl methacrylate and sectioned with a diamond saw to expose the midshaft cross-section. Images of the midshaft cross-sections were captured using a digital camera (Spot Insight QE, Diagnostic Instruments Inc., Sterling Heights, Mich.), and Scion Image analysis software (Scion Corporation, Frederick, Md.) was used to calculate the periosteal area (Ps.Ar), cortical area (Ct.Ar), and endosteal area (Es.Ar) for each sample. Cortical bone thickness (Ct.Th) was calculated in 0.1 mm increments for each anatomical quadrant and for the entire cross-section using image analysis software (Bioquant Osteo, Nashville, Tenn.). Thin sections from the midshaft of the right femur were ground to a thickness of 50 μm and mounted on glass slides. Images of calcein labels were captured at 100× magnification and periosteal and endosteal mineral apposition rates (Ps.MAR and Es.MAR, respectively) and mineralizing surfaces (Ps.MS/BS and Es.MS/MS) were quantified (Bioquant) for each femur.
as §3

[7] = system: Male Swiss-Webster mice; assay: Cortical bone mineral content (ash fraction) and geometrical properties of the femur; assay type: in vivo, mouse; details: femoral midshaft, 2.5 nmol/kg s.c., 8 weeks, normalized by body mass, SD in parentheses
Description: as §1, §2, §4, §3

[8] = system: procollagen-1 mRNA; details: Nasu et al., 1998; cited from earlier work
[9] = system: ovariectomized (OVX) Sprague-Dawley rats; assay: In vivo effects of human PTH1-84 and bear PTH1-84 in ovariectomized rats; set-up: species or system rat; details: 2.5 nmol/kg s.c., eight weeks
Method: Thirty female, 2.5-month old Sprague-Dawley rats were ovariectomized (OVX) at the commercial breeding facility The OVX animals were randomly assigned into 3 groups of 10 animals per group for further experiments.
Six weeks after the OVX procedure, the rats were injected subcutaneously for an eight-week period (daily for five days per week) with vehicle (saline) or 2.5 nmol/kg bear or human PTH1-84. Animals were euthanized 24 hours after the last injection. Samples were obtained from the euthanized animals for further analysis.
Femur bending strength and proximal tibia trabecular architecture were investigated as described in Example 12.

**Q.** For “ALX1-11: recombinant human PTH 1-84 (NPS Pharmaceuticals), under consideration for approval by the FDA”, which osteosarcoma in rats ([1]; long-term usage) is on record?
**A.** generates osteosarcoma

**Q.** And the “bone recovered during the suggested treatment regimen” value [2]?
**A.** 8%

**Q.** For human PTH1-84 [hPTH 1-84], which BV/TV ([3]; 2.5 nmol/kg s.c. daily 5 days/week) is on record?
**A.** 1.34 %/kg

**Q.** And the “App. Mn. Dn” value ([3]; 2.5 nmol/kg s.c.)?
**A.** 2513 ^b mgHA/(cm^3*kg)

**Q.** What about the “Mat. Mn. Dn.” value ([3]; 2.5 nmol/kg s.c.) of the same substance?
**A.** 29810 mgHA/(cm^3*kg)

**Q.** And the “Tb. N” value ([3]; 2.5 nmol/kg s.c.)?
**A.** 98.7 1/mm*kg

**Q.** And the “Tb. Sp” value ([3]; 2.5 nmol/kg s.c.)?
**A.** 9.57 mm/kg

**Q.** What about the “Tb. Th” value ([3]; 2.5 nmol/kg s.c.) of the same substance?
**A.** 1.26 mm/kg

**Q.** What about the “percentage change in cell death compared to vehicle pretreatment” value [4] of the same substance?
**A.** −17%

**Q.** And the “rate of carcinogenicity compared to human PTH 1-34” value ([1]; rat, in vivo)?
**A.** lower rate of carcinogenicity

**Q.** What about the “caspase-3/7 activity, comparison between peptide groups” value [5] of the same substance?
**A.** lower levels of apoptosis

**Q.** And the “Endosteal MAR” value [6]?
**A.** 0.62 ( ).39)

**Q.** And the “Endosteal MS/BS” value [6]?
**A.** 32.1 (19.4)

**Q.** What about the “Periosteal MAR” value [6] of the same substance?
**A.** 0.60 (0.40)

**Q.** What about the “Periosteal MS/BS” value [6] of the same substance?
**A.** 20.2 (16.7)

**Q.** What about the Ct.Ar [7] of the same substance?
**A.** 29.0 (3.7) mm^2/kg

**Q.** What about the Ct.Th [7] of the same substance?
**A.** 3.41 (0.59)^a mm/kg

**Q.** What about the Es.Ar [7] of the same substance?
**A.** 25.6 (3.3) mm^2/kg

**Q.** What about the Ps.Ar [7] of the same substance?
**A.** 54.6 (4.4)^b,c mm^2/kg

**Q.** What about the “production of procollagen-1 mRNA” value [8] of the same substance?
**A.** does not

**Q.** What about the “bone volume fraction / trabecular bone volume” value [9] of the same substance?
**A.** equivalently increase
